# Laboratory results taken from patent US20220125839A1, “COMBINATION OF T-CELL THERAPY AND TARGETED THERAPY FOR TREATING THERAPY-RESISTANT MELANOMA WITH MUTATIONS IN THE BRAF GENE” (H. LEE MOFFITT CANCER CENTER AND RESEARCH INSTITUTE, INC., priority 2019, published 2022).
# What was measured:
# M6PR = test: Cell surface M6PR expression by flow cytometry in WM35 melanoma cells; assay type: cell-based, human
# Procedure: Human studies were approved by The Wistar Institute IRB. Peripheral blood was collected from healthy volunteers after obtaining informed consent. Animal experiments were approved by The Wistar Institute Animal Care and Use Committee. The mice were kept under pathogen free conditions. Experiments were carried out using female NSG mice or female and male nonobese diabetic/severe combined immunodeficient (NOD/SCID) mice, obtained from the mouse facility of the Wistar Institute and Charles River Laboratories, respectively. WM35 human melanoma and HLA-matched human tumor infiltrating lymphocytes (TIL) were generated at H. Lee Moffitt Cancer Center and Research Institute, Tampa, Fla., USA). […] Louis, Mo.) and 1% Pen/Strep (Corning; Cat. no. 30-002-Cl) at 37° C., 5% CO2. PLX4720-resistant cells were kept in cell culture media supplemented with 1 μM PLX4720 to keep these cells resistant against the drug. 350 μg/mL Hygromycin B (Invitrogen; […] Tumor cell lines were tested for mycoplasma contamination by using Universal Mycoplasma detection kit (ATCC) regularly. […] Cat. no. […] Cat. no. S2673). Hypoxia (0.5% 02) was maintained using hypoxic chamber (BioSpherix). […] Cells were incubated with Aqua dead cell staining kit (Thermo Fischer Scientific; Cat. no. […] Cat. no. 565105; clone no. MEM-238) or its isotype (BD Biosciences; Cat. no. 557732; clone no. […] Data was analyzed by FlowJo software (Tree Star).
# WM35 cells = test: Granzyme B (GrzB) uptake by WM35 cells; assay type: cell-based, human; details: overnight PLX4720, then inactive GrzB for an hour
# WM983B-M6PR-KO cells [1] = test: Granzyme B (GrzB) uptake by WM983B-M6PR-KO cells; assay type: cell-based, human; details: WM983B-M6PR-KO (absence of M6PR); overnight, then inactive GrzB 1 hour
# Procedure: Cells were then stained with Aqua dead cell staining kit (Thermo Fischer Scientific) for 15 min at 4° C. fixed in fixation buffer (BD Cytofix/Cytoperm; Cat. no. 51-2090). Granzyme B antibody (Cat. no. 561142) or its isotype control (BD Bioscience; Cat. no. 555749) were used. Stained cells were run on LSR14. Data was analyzed by FlowJo software (Tree Star).
# To investigate if M6PR has a direct role in the increased uptake of GrzB induced by PLX4720, we generated a WM983B-M6PR-KO cell line lacking M6PR expression, using Crispr/Cas9 technology. Deletion of M6PR was confirmed by western blotting (FIG. 8A) and flow cytometry (FIG. 8B). WM983B and WM983B-M6PR-KO cells were cultured with DMSO or different concentrations of PLX4720. […] To test the sensitivity of WM983B cells to CTLs, we expanded TILs isolated from a HLA-A1+ patient with metastatic melanoma. These TILs recognized HLA-A1+WM983B cells. As targets, we used WM983B and WM983B-M6PR-KO cells. […] BRAFi sensitive and resistant WM983B cells were recognized by CTLs equally well (FIG. 8E). […] Herein was asked whether manipulation with expression of M6PR could affect expression of molecules associated with antigen presentation and regulation of immune responses by tumor cells. We evaluated expression of MHC class I, MHC class II, PDL1, and FasL on tumor cells with overexpression or deletion of M6PR.
# WM983B-M6PR-KO cells [2] = test: CTL assay (51Cr release), WM983B-M6PR-KO targets with TILs; assay type: cell-based, human; details: WM983B-M6PR-KO treated ON with PLX4720
# Procedure: For Chromium (^51Cr) release assays, 1×10^6 human melanoma cells were incubated with 100 μCi ^51Cr (Perkin-Elmer; Cat. no. NEZ030S001MC; 1 mCi/mL) at 37° C. for 60 minutes, washed 3 times with sterile PBS and plated into 96-well round-bottom plates at a cell density of 1×10^4 tumor target cells/well. Target cells were incubated with human CD8+ TILs in triplicates at the indicated effector/target ([…]) ratios in 200 μl culture medium at 37° C. in a humidified CO2 incubator. After incubation, plates were centrifuged, 50 μl supernatant was harvested from each well and ^51Cr release was measured using a gamma counter. The percent specific lysis was calculated as follows: 100×[(experimental release−spontaneous release)/(maximum release−spontaneous release)]. As controls, T cells isolated from blood of healthy donor were used.
# To investigate if M6PR has a direct role in the increased uptake of GrzB induced by PLX4720, we generated a WM983B-M6PR-KO cell line lacking M6PR expression, using Crispr/Cas9 technology. Deletion of M6PR was confirmed by western blotting (FIG. 8A) and flow cytometry (FIG. 8B). WM983B and WM983B-M6PR-KO cells were cultured with DMSO or different concentrations of PLX4720. […] We evaluated expression of MHC class I, MHC class II, PDL1, and FasL on tumor cells with overexpression or deletion of M6PR.
# WM35-BR cells = test: Tumor growth of WM35-BR xenografts in NOD/SCID mice; assay type: in vivo; details: PLX4720 50 mg/kg for 10 days, TIL i.v. twice at a 4 day interval
# Procedure: In order to establish xenograft models, cultured WM35, WM35-BR, WM983B-BR-pAHygCMV2 and WM983B-BR-M6PR/IGF2R cells were harvested, suspended in sterile PBS, mixed in 2:1 ratio with Matrigel and injected subcutaneously into the left flank of mice (1-3×10^6 cells per mouse). PLX4720 was administered daily at dose 50 mg/kg for 10 days via oral gavage. As a control, mice treated with vehicle alone (2% DMSO, 50% PEG 300, 5% Tween 80) were used. Treatments were started when tumors were 0.5-0.8 cm in diameter.
# We next tested whether PLX-induced M6PR up-regulation on the cell surface of resistant cells sensitized them to HLA-matched TIL. […] We asked whether BRAFi could sensitize resistant tumors to TILs in vivo. WM35-BR cells were injected subcutaneously to the flanks of immune deficient NOD/SCID mice and when tumors became palpable, mice were split to 4 groups. Mice treated with vehicle alone, mice treated with 50 mg/kg PLX4720 for 10 days, mice treated with CD8+ T-cell enriched TIL i.v. twice at a 4 day interval and mice treated with combination of PLX4720 and TILs.
smiles,measurement,setting,value
CCCS(=O)(=O)Nc1ccc(F)c(C(=O)c2c[nH]c3ncc(Cl)cc23)c1F [PLX4720],M6PR on the cell surface,"M6PR; 1 μM, 2.5, 5 or 10 μM PLX4720, within 6 hours",substantial dose-dependent up-regulation of M6PR on the cell surface
same,cell surface M6PR after overnight treatment,M6PR; overnight,M6PR up-regulation was confirmed
same,GrzB uptake by tumor cells,WM35 cells,significant up-regulation of GrzB uptake
same,PLX4720-inducible GrzB uptake,WM983B-M6PR-KO cells [1],up-regulation of GrzB uptake was abrogated
same,killing of tumor cells by TILs,WM983B-M6PR-KO cells [2],this effect was not observed
same,tumor growth,WM35-BR cells,did not affect tumor growth
